Results published in publication PMC3148848 (Journal of medicinal chemistry, 2009).

Target: SARS-CoV PLpro (Severe acute respiratory syndrome coronavirus, UniProt P0C6X7)
Assay type: biochemical

Cc1ccccc1C(=O)N[C@H](C)c1ccc2ccccc2c1 [lead]
mode of inhibition (kinetic studies): reversible inhibitor
